Legend:
SETVI (Foxtail, Green) [1] = experiment: Preemergence herbicidal evaluation; type: in vivo, Setaria viridis; settings: rated 4-5 weeks after treatment; for SETVI rating: preemergence, 0-9 scale
How it was run: (§1)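 Steps: mix seeds into potting soil; plant atop ~1 inch soil; spray compound in aqueous acetone (~0.0156-0.500 kg/ha equivalent); maintain in greenhouse with watering; rate visually 0-9 versus control at 4-5 weeks.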

[2] = tested on: TRZAWR (Wheat, Winter, cv Riband); experiment: Postemergence herbicidal evaluation; type: in vivo, Triticum aestivum; settings: for TRZAWR herbicidal rating: postemergence
How it was run: (§2)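 First, seedlings were raised for around two weeks. Next, test material in 50/50 acetone/water containing 0.5% TWEEN 20 was sprayed through a nozzle at 40 psi, equivalent to about 0.0156–0.500 kg/ha. Finally, after 4–5 weeks in the greenhouse, plants were rated 0–9.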

[3] = tested on: SAGPY (Arrowhead (Pygmaea)); experiment: Postemergence weed control under flooded paddy conditions; type: in vivo, Sagittaria pygmaea; settings: postemergence weeds
How it was run: (§3)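 Flood-water application, about 0.0313–0.500 kg/ha a.i. in aqueous/acetone 50/50 v/v; water depth 1.5–3 cm throughout. Weeds 3–5 cm, rice 1.5–2.5 leaf. Greenhouse; 0–9 visual rating vs control at 3–4 wk.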

[4] = tested on: ECHORC (Watergrass (Calif.)); experiment: as above; type: in vivo, Echinochloa oryzoides; settings: postemergence weeds
How it was run: as §3

GALAP (Galium) = experiment: Preemergence herbicidal evaluation; type: in vivo, Galium aparine; settings: rated 4-5 weeks after treatment; for GALAP rating: preemergence, 0-9 scale
How it was run: as §1

CYPSE (Flatsedge) = experiment: Postemergence weed control under flooded paddy conditions; type: in vivo, Cyperus serotinus; settings: postemergence weeds
How it was run: as §3

AMBEL (Ragweed, Common) = experiment: Preemergence herbicidal evaluation; type: in vivo, Ambrosia artemisifolia; settings: rated 4-5 weeks after treatment; for AMBEL rating: preemergence, 0-9 scale
How it was run: as §1

CYPIR (Rice Flatsedge) = experiment: Preemergence weed control under flooded paddy conditions; type: in vivo, Cyperus iria; settings: rated 3-4 weeks after treatment
How it was run: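 Visual injury scored 0-9 against control three to four weeks post-treatment, greenhouse-grown. Application: acetone/water (50/50) solutions dosed directly into flood water (1.5-3 cm over silt loam, planted top 0.5 cm), roughly 0.0313 to 0.500 kg/ha active ingredient.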

ZEAMX (Corn, Field) = experiment: Postemergence herbicidal evaluation; type: in vivo, Zea mays; settings: for ZEAMX herbicidal rating: postemergence
How it was run: as §2

ORYSAT (Rice, Tebonnet) = experiment: Postemergence herbicidal evaluation; type: in vivo, Oryza sativa, (L.) Tebonnet; settings: for ORYSAT herbicidal rating: postemergence
How it was run: as §2

[5] = tested on: CHEAL (Lambsquarters, Common); experiment: Postemergence herbicidal evaluation; type: in vivo, Chenopodium album; settings: for CHEAL herbicidal rating: postemergence
How it was run: as §2

ABUTH (Velvetleaf) = experiment: Postemergence herbicidal evaluation; type: in vivo, Abutilon theophrasti; settings: for ABUTH herbicidal rating: postemergence
How it was run: as §2

[6] = tested on: GLXMAW (Soybean, Williams); experiment: Postemergence herbicidal evaluation; type: in vivo, Glycine max, (L.) Merr. cv Williams; settings: for GLXMAW herbicidal rating: postemergence
How it was run: as §2

SETVI (Foxtail, Green) [7] = experiment: Postemergence herbicidal evaluation; type: in vivo, Setaria viridis; settings: for SETVI herbicidal rating: postemergence
How it was run: as §2

[8] = Rate 0.0625 kg/ha, rated 3 to 4 weeks after treatment
[9] = Rate 0.1250 kg/ha, rated 3 to 4 weeks after treatment
[10] = Rate 0.2500 kg/ha, rated 3 to 4 weeks after treatment
[11] = rate 0.2500 kg/ha, 3-4 weeks after treatment

COC(=O)C1(N2C(=O)CSC2=Nc2cc(-n3c(=O)cc(C(F)(F)F)n(C)c3=O)c(F)cc2Cl)CCCCC1 [Compound 81, Methyl 1-{2-{{2-chloro-5-[3,6-dihydro-3-methyl-2,6-dioxo-4-(trifluoromethyl)-1(2H)-pyrimidinyl]-4-fluorophenyl}imino}-4-oxo-3-thiazolidinyl}-cyclohexanecarboxylate]
SETVI rating (SETVI (Foxtail, Green) [1]; 0.0313 kg/ha): 0.0
SETVI rating (SETVI (Foxtail, Green) [1]; 0.0625 kg/ha): 1.0
SETVI rating (SETVI (Foxtail, Green) [1]; 0.1250 kg/ha): 0.0
SETVI rating (SETVI (Foxtail, Green) [1]; 0.2500 kg/ha): 3.0
TRZAWR herbicidal rating ([2]; rate 0.0158 kg/ha): 4.5
TRZAWR herbicidal rating ([2]; rate 0.0315 kg/ha): 5.0
TRZAWR herbicidal rating ([2]; rate 0.0630 kg/ha): 6.0
Herbicidal rating SAGPY [3, 8]: 0.0
Herbicidal rating SAGPY [3, 9]: 0.0
Herbicidal rating SAGPY [3, 10]: 0.0
Herbicidal rating ECHORC [4, 8]: 0.0
Herbicidal rating ECHORC [4, 9]: 3.0
Herbicidal rating ECHORC [4, 10]: 3.0
GALAP rating (GALAP (Galium); 0.0313 kg/ha): 0.0
GALAP rating (GALAP (Galium); 0.0625 kg/ha): 0.0
GALAP rating (GALAP (Galium); 0.1250 kg/ha): 0.0
GALAP rating (GALAP (Galium); 0.2500 kg/ha): 1.0
Herbicidal rating CYPSE (CYPSE (Flatsedge); [8]): 0.0
Herbicidal rating CYPSE (CYPSE (Flatsedge); [9]): 0.0
Herbicidal rating CYPSE (CYPSE (Flatsedge); [10]): 0.0
AMBEL rating (AMBEL (Ragweed, Common); 0.0313 kg/ha): 6.0
AMBEL rating (AMBEL (Ragweed, Common); 0.0625 kg/ha): 6.0
AMBEL rating (AMBEL (Ragweed, Common); 0.1250 kg/ha): 9.0
AMBEL rating (AMBEL (Ragweed, Common); 0.2500 kg/ha): 9.0
CYPIR herbicidal effect rating (CYPIR (Rice Flatsedge); 0.0625 kg/ha): 4.0
CYPIR herbicidal effect rating (CYPIR (Rice Flatsedge); 0.1250 kg/ha): 5.0
CYPIR herbicidal effect rating (CYPIR (Rice Flatsedge); 0.2500 kg/ha): 5.0
ZEAMX herbicidal rating (ZEAMX (Corn, Field); rate 0.0158 kg/ha): 6.5
ZEAMX herbicidal rating (ZEAMX (Corn, Field); rate 0.0315 kg/ha): 7.0
ZEAMX herbicidal rating (ZEAMX (Corn, Field); rate 0.0630 kg/ha): 7.0
ORYSAT herbicidal rating (ORYSAT (Rice, Tebonnet); rate 0.0158 kg/ha): 4.5
ORYSAT herbicidal rating (ORYSAT (Rice, Tebonnet); rate 0.0315 kg/ha): 4.5
ORYSAT herbicidal rating (ORYSAT (Rice, Tebonnet); rate 0.0630 kg/ha): 5.5
CHEAL herbicidal rating ([5]; rate 0.0158 kg/ha): 4.0
CHEAL herbicidal rating ([5]; rate 0.0315 kg/ha): 3.0
ABUTH herbicidal rating (ABUTH (Velvetleaf); rate 0.0158 kg/ha): 7.0
ABUTH herbicidal rating (ABUTH (Velvetleaf); rate 0.0315 kg/ha): 7.0
ABUTH herbicidal rating (ABUTH (Velvetleaf); rate 0.0630 kg/ha): 9.0
GLXMAW herbicidal rating ([6]; rate 0.0158 kg/ha): 6.5
GLXMAW herbicidal rating ([6]; rate 0.0315 kg/ha): 6.5
GLXMAW herbicidal rating ([6]; rate 0.0630 kg/ha): 6.5
SETVI herbicidal rating (SETVI (Foxtail, Green) [7]; rate 0.0158 kg/ha): 1.0
SETVI herbicidal rating (SETVI (Foxtail, Green) [7]; rate 0.0315 kg/ha): 1.0
SETVI herbicidal rating (SETVI (Foxtail, Green) [7]; rate 0.0630 kg/ha): 9.0

Cn1c(C(F)(F)F)cc(=O)n(-c2cc(/N=C3/SCC(=O)N3CC(=O)O)c(Cl)cc2F)c1=O [Compound 52, 2-{{2-Chloro-5-[3,6-dihydro-3-methyl-2,6-dioxo-4-(trifluoromethyl)-1(2H)-pyrimidinyl]-4-fluoro-phenyl}imino}-4-oxo-3-thiazolidineacetic acid]
Preemergence herbicidal rating SETVI (SETVI (Foxtail, Green) [1]; rate 0.0313 kg/ha): 0.0
Preemergence herbicidal rating SETVI (SETVI (Foxtail, Green) [1]; rate 0.0625 kg/ha): 0.0
Preemergence herbicidal rating SETVI (SETVI (Foxtail, Green) [1]; rate 0.1250 kg/ha): 1.0
Preemergence herbicidal rating SETVI (SETVI (Foxtail, Green) [1]; rate 0.2500 kg/ha): 9.0
Postemergence herbicidal rating TRZAWR ([2]; Rate 0.0158 kg/ha): 2.5
Postemergence herbicidal rating TRZAWR ([2]; Rate 0.0315 kg/ha): 3.0
Postemergence herbicidal rating TRZAWR ([2]; Rate 0.0630 kg/ha): 4.5
Herbicidal rating SAGPY [3, 11]: 0.0
Herbicidal rating ECHORC [4, 11]: 0.0
Preemergence herbicidal rating GALAP (GALAP (Galium); rate 0.0313 kg/ha): 0.0
Preemergence herbicidal rating GALAP (GALAP (Galium); rate 0.0625 kg/ha): 0.0
Preemergence herbicidal rating GALAP (GALAP (Galium); rate 0.1250 kg/ha): 0.0
Preemergence herbicidal rating GALAP (GALAP (Galium); rate 0.2500 kg/ha): 7.0
Herbicidal rating CYPSE (CYPSE (Flatsedge); [11]): 0.0
Preemergence herbicidal rating AMBEL (AMBEL (Ragweed, Common); rate 0.0313 kg/ha): 0.0
Preemergence herbicidal rating AMBEL (AMBEL (Ragweed, Common); rate 0.0625 kg/ha): 0.0
Preemergence herbicidal rating AMBEL (AMBEL (Ragweed, Common); rate 0.1250 kg/ha): 2.0
Preemergence herbicidal rating AMBEL (AMBEL (Ragweed, Common); rate 0.2500 kg/ha): 3.0
Herbicidal rating CYPIR (CYPIR (Rice Flatsedge); 0.2500 kg/ha): 2.0
Postemergence herbicidal rating ZEAMX (ZEAMX (Corn, Field); Rate 0.0158 kg/ha): 5.0
Postemergence herbicidal rating ZEAMX (ZEAMX (Corn, Field); Rate 0.0315 kg/ha): 7.5
Postemergence herbicidal rating ZEAMX (ZEAMX (Corn, Field); Rate 0.0630 kg/ha): 7.0
Postemergence herbicidal rating ORYSAT (ORYSAT (Rice, Tebonnet); Rate 0.0158 kg/ha): 1.0
Postemergence herbicidal rating ORYSAT (ORYSAT (Rice, Tebonnet); Rate 0.0315 kg/ha): 1.0
Postemergence herbicidal rating ORYSAT (ORYSAT (Rice, Tebonnet); Rate 0.0630 kg/ha): 2.0
Postemergence herbicidal rating CHEAL ([5]; Rate 0.0158 kg/ha): 4.0
Postemergence herbicidal rating CHEAL ([5]; Rate 0.0315 kg/ha): 4.0
Postemergence herbicidal rating CHEAL ([5]; Rate 0.0630 kg/ha): 6.0
Postemergence herbicidal rating ABUTH (ABUTH (Velvetleaf); Rate 0.0158 kg/ha): 1.0
Postemergence herbicidal rating ABUTH (ABUTH (Velvetleaf); Rate 0.0315 kg/ha): 9.0
Postemergence herbicidal rating ABUTH (ABUTH (Velvetleaf); Rate 0.0630 kg/ha): 9.0
Postemergence herbicidal rating GLXMAW ([6]; Rate 0.0158 kg/ha): 5.0
Postemergence herbicidal rating GLXMAW ([6]; Rate 0.0315 kg/ha): 6.0
Postemergence herbicidal rating GLXMAW ([6]; Rate 0.0630 kg/ha): 6.0
Postemergence herbicidal rating SETVI (SETVI (Foxtail, Green) [7]; Rate 0.0158 kg/ha): 1.0
Postemergence herbicidal rating SETVI (SETVI (Foxtail, Green) [7]; Rate 0.0315 kg/ha): 3.0
Postemergence herbicidal rating SETVI (SETVI (Foxtail, Green) [7]; Rate 0.0630 kg/ha): 7.0
